Data as given in US6689767B2, “Triterpenes having antibacterial activity” (Regents of the University of Minnesota, priority 2000, dated 2004).

Tests used:
Staphylococcus aureus [1] = assay: Kirby-Bauer disk diffusion growth inhibition, Staphylococcus aureus; assay type: cell-based; conditions: for Zone of inhibition (mm) against S. aureus: Example 35; for Zone of inhibition Staphylococcus aureus: 100 μl on 10 mm disk, 18 hours 37° C.; for Active against: Table 1 summary, S. aureus
Description: (§1) The compounds disclosed herein were tested for growth inhibition against four strains of bacteria: Escherichia coli, Staphylococcus aureus, methicillin-resistant Staphylococcus aureus, and Bacillus subtilis. […] They represent […]. E. coli is a gram-negative, non-spore forming, rod-shaped, opportunistic pathogen that resides in the human digestive tract. S. aureus is a gram positive coccus, is usually found morphologically as a […], and is an opportunistic human pathogen, often residing on or in the skin. B. subtilis is a gram positive spore-forming rod. Its native environment is the soil. The chemicals were tested for growth-inhibition of the bacteria by the Kirby-Bauer method. See, e.g., Microbiology, third edition; Lansing M. Prescott, John P. Harley, and Donald A. Klein; Wm. C. Brown Publishers.
(§2) Mueller-Hinton agar (Difco Lab, Michigan) was prepared according to the manufacturer's directions, and 20 ml was dispensed in each sterile petri dish. Sterile nutrient broth (Difco Lab, Michigan) was also prepared according to the manufacturer's directions.
(§3) Bacteria were grown in liquid nutrient broth for 18 hours at 37° C. until they were turbid.
(§4) An aliquot of 0.5 ml of cultured bacteria was aseptically transferred to the surface of a Mueller-Hinton agar plat, and spread using a cotton-tipped swab. Plates were then allowed to dry for 5 minutes. Then a 10 mm diameter filter paper disk impregnated with the test chemical was placed with sterile forceps on the plate. The disks were impregnated with 100 μl of a solution of the test compound in DMSO or in water, at the indicated concentrations in Table 1.
(§5) The zones of inhibition were measured after 18 hours growth at 37° C. Tests were done in triplicate.
(§6) Additional compounds were tested for activity against E. coli, laboratory strain S. aureus (not methicillin resistant), and B. subtilis. The compounds were tested by the disk diffusion method, as in Example 1, with application of a 10 mg/mil solution of the test compound in DMSO.
(§7) Derivatives of lupeol were tested for inhibition of bacterial growth using the Kirby-Bauer disk diffusion method and by growth in liquid culture. For the disk diffusion method, compounds were dissolved in DMSO and 100 μl was added to the 10 mm filter paper disk. The amount of compound applied to the disk varied. The amount applied for each compound was as follows: lupeol (50 μg), lupeol-3-maleate (15 μg), lupeol-3-thiodiglycolate (15 μg), lupeol-3-dimethyl succinate (60 μg), lupeol-3-phosphate (30 μg), lupenone (50 μg), lupenon-3-oxime (50 μg), lupeol-3-amine (50 μg), lupenon-1,2-ene-2-ol (50 μg). In liquid culture, the compounds were dissolved in DMSO at 1 mg/ml and then 100 μl was added to 7 ml of sterile broth, along with a 1/200 dilution of freshly grown bacterial liquid culture.

[2] = system: Staphylococcus epidemidis; assay: Kirby-Bauer disk diffusion of lupeol derivatives, Staphylococcus epidermidis; assay type: cell-based
Description: as §7

Enterococcus faecalis = assay: Kirby-Bauer disk diffusion of lupeol derivatives, Enterococcus faecalis; assay type: cell-based; conditions: for Active against: Table 1 summary, E. faecalis
Description: as §7

Escherichia coli = assay: Kirby-Bauer disk diffusion growth inhibition, Escherichia coli; assay type: cell-based; conditions: for Zone of inhibition Escherichia coli: 100 μl on 10 mm disk, 18 hours 37° C.; for sensitivity of E. coli: Example 34, 10 mg/ml in DMSO; for Active against: Table 1 summary, E. coli
Description: as §1, §2, §3, §4, §5, §6

Bacillus subtilis = assay: Kirby-Bauer disk diffusion growth inhibition, Bacillus subtilis; assay type: cell-based; conditions: for Zone of inhibition Bacillus subtilis: 100 μl on 10 mm disk, 18 hours 37° C.
Description: as §1, §2, §3, §4, §5, §6

bacteria = assay: Summary statements over the antibacterial assays above; assay type: cell-based; conditions: for active against at least one strain of bacteria in the assays above: summary list; for overall activity in Example 35: S. aureus, S. epidermidis, E. faecalis, disk diffusion and liquid growth
Staphylococcus epidermis = assay: Growth in liquid culture, optical density, S. epidermidis; assay type: cell-based, Staphylococcus epidermidis; conditions: 600 nm, 24 hours growth, test compound at 14 μg per ml; None = 0.07
Description: as §7

Staphylococcus aureus [3] = assay: Growth in liquid culture, optical density, S. aureus; assay type: cell-based; conditions: 600 nm, 24 hours growth, test compound at 14 μg per ml; None = 0.08
Description: as §7

Enterococcus faecilis = assay: Growth in liquid culture, optical density, E. faecalis; assay type: cell-based, Enterococcus faecalis; conditions: 600 nm, 24 hours growth, test compound at 14 μg per ml; None = 0.85
Description: as §7

[4] = reference antibiotic, amount on disk not stated
[5] = 50 μg applied to 10 mm disk in DMSO
[6] = 60 μg applied to 10 mm disk in DMSO

## CC1(C)S[C@@H]2[C@H](NC(=O)[C@H](N)c3ccccc3)C(=O)N2[C@H]1C(=O)O [Ampicillin, reference compound]
Staphylococcus aureus [1]; [4]
  Zone of inhibition (mm) against S. aureus: 6.1 mm
[2]; [4]
  Zone of inhibition (mm) against S. epiderm.: 2 mm
Enterococcus faecalis; [4]
  Zone of inhibition (mm) against E. faecalis: 5.75 mm

## C=C(C)[C@@H]1CC[C@]2(COC(=O)CN)CC[C@]3(C)[C@H](CC[C@@H]4[C@@]5(C)CC[C@H](OC(=O)CN)C(C)(C)[C@@H]5CC[C@]43C)[C@@H]12 [Betulin 3,28-diglycine, Betulin-3,28-diglycine]
Escherichia coli; 125 ng/ml in water
  Zone of inhibition Escherichia coli: 0 mm
Escherichia coli
  sensitivity of E. coli: sensitive
  Active against: E. coli
Staphylococcus aureus [1]; 125 ng/ml in water
  Zone of inhibition Staphylococcus aureus: 0 mm
Bacillus subtilis; 125 ng/ml in water
  Zone of inhibition Bacillus subtilis: 0 mm
bacteria
  active against at least one strain of bacteria in the assays above: active against at least one strain of bacteria

## C=C(C)C1CCC2(COC(=O)CCC(=O)O)CC[C@@]3(C)C(CCC4[C@@]5(C)CCC(OC(=O)CCC(=O)O)C(C)(C)C5CC[C@]43C)C12 (stereo partly shown) [Betulin 3,28-disuccinate, Betulin-3,28-disuccinate]
Escherichia coli; 1 mg/ml in DMSO
  Zone of inhibition Escherichia coli: 0 mm
Staphylococcus aureus [1]; 1 mg/ml in DMSO
  Zone of inhibition Staphylococcus aureus: 0 mm
Bacillus subtilis; 1 mg/ml in DMSO
  Zone of inhibition Bacillus subtilis: 0 mm
bacteria
  active against at least one strain of bacteria in the assays above: active against at least one strain of bacteria

## C=C(C)[C@@H]1CC[C@]2(COC(=O)[C@@H](N)C(C)C)CC[C@]3(C)[C@H](CC[C@@H]4[C@@]5(C)CC[C@H](OC(=O)[C@@H](N)C(C)C)C(C)(C)[C@@H]5CC[C@]43C)[C@@H]12 [Betulin-3,28-Di-L-valine ester, Betulin-3,28-di-L-valine]
Staphylococcus aureus [1]; Example 34, 10 mg/ml in DMSO
  sensitivity of S. aureus: sensitive
Staphylococcus aureus [1]
  Active against: S. aureus
bacteria
  active against at least one strain of bacteria in the assays above: active against at least one strain of bacteria

## C=C(C)[C@@H]1CC[C@]2(CO)CC[C@]3(C)[C@H](CC[C@@H]4[C@@]5(C)CC[C@H](OC(=O)/C=C/c6ccc(O)c(O)c6)C(C)(C)[C@@H]5CC[C@]43C)[C@@H]12 [Betulin-3-caffeate]
Escherichia coli
  sensitivity of E. coli: sensitive
  Active against: E. coli
bacteria
  active against at least one strain of bacteria in the assays above: active against at least one strain of bacteria

## C=C(C)C1CCC2(COC(=O)COCC(=O)O)CCC3(C)C(CCC4C5(C)CCC(O)C(C)(C)C5CCC43C)C12 (stereo not shown) [Betulin-28-diglycolate]
Escherichia coli
  sensitivity of E. coli: sensitive
  Active against: E. coli
bacteria
  active against at least one strain of bacteria in the assays above: active against at least one strain of bacteria

## O=C(N[C@H](CO)[C@H](O)c1ccc([N+](=O)[O-])cc1)C(Cl)Cl [Chloramphenicol, reference compound]
Staphylococcus aureus [1]; [4]
  Zone of inhibition (mm) against S. aureus: 2.6 mm
[2]; [4]
  Zone of inhibition (mm) against S. epiderm.: 0.5 mm
Enterococcus faecalis; [4]
  Zone of inhibition (mm) against E. faecalis: 1.25 mm

## C=C(C)[C@@H]1CC[C@]2(C)CC[C@]3(C)[C@H](CC[C@@H]4[C@@]5(C)CCC(=NO)C(C)(C)[C@@H]5CC[C@]43C)[C@@H]12 [Lupenon oxime, Lupenon-3-oxime]
Staphylococcus aureus [1]; [5]
  Zone of inhibition (mm) against S. aureus: 0.4 mm
Staphylococcus aureus [1]
  Active against: S. aureus,
[2]; [5]
  Zone of inhibition (mm) against S. epiderm.: 0 mm
Enterococcus faecalis; [5]
  Zone of inhibition (mm) against E. faecalis: 0.6 mm
Enterococcus faecalis
  Active against: E. faecalis
Staphylococcus epidermis
  Optical Density of S. epiderm: 0.06
Staphylococcus aureus [3]
  Optical Density of S. aureus: 0.06
Enterococcus faecilis
  Optical Density of E. faecalis: 0.45
bacteria
  active against at least one strain of bacteria in the assays above: active against at least one strain of bacteria

## C=C(C)[C@@H]1CC[C@]2(C)CC[C@]3(C)[C@H](CC[C@@H]4[C@@]5(C)C=C(O)C(=O)C(C)(C)[C@@H]5CC[C@]43C)[C@@H]12 [Lupenon-1,2-ene-2-ol]
Staphylococcus aureus [1]; [5]
  Zone of inhibition (mm) against S. aureus: 0.85 mm
Staphylococcus aureus [1]
  Active against: S. aureus,
[2]; [5]
  Zone of inhibition (mm) against S. epiderm.: 2.65 mm
[2]; Table 1 summary, S. epidermidis
  Active against: S. epidermidis,
Enterococcus faecalis; [5]
  Zone of inhibition (mm) against E. faecalis: 0.6 mm
Enterococcus faecalis
  Active against: E. faecalis
Staphylococcus epidermis
  Optical Density of S. epiderm: 0.006
Staphylococcus aureus [3]
  Optical Density of S. aureus: 0.04
Enterococcus faecilis
  Optical Density of E. faecalis: 0.01
bacteria
  overall activity in Example 35: most active compound against almost all the bacteria
  active against at least one strain of bacteria in the assays above: active against at least one strain of bacteria

## C=C(C)[C@@H]1CC[C@]2(C)CC[C@]3(C)[C@H](CC[C@@H]4[C@@]5(C)CCC(=O)C(C)(C)[C@@H]5CC[C@]43C)[C@@H]12 [Lupenone]
Staphylococcus aureus [1]; [5]
  Zone of inhibition (mm) against S. aureus: 1.25 mm
Staphylococcus aureus [1]
  Active against: S. aureus,
[2]; [5]
  Zone of inhibition (mm) against S. epiderm.: 1 mm
Enterococcus faecalis; [5]
  Zone of inhibition (mm) against E. faecalis: 0.5 mm
Enterococcus faecalis
  Active against: E. faecalis
Staphylococcus epidermis
  Optical Density of S. epiderm: 0.03
Staphylococcus aureus [3]
  Optical Density of S. aureus: 0.04
Enterococcus faecilis
  Optical Density of E. faecalis: 0.04
bacteria
  overall activity in Example 35: excellent activity
  active against at least one strain of bacteria in the assays above: active against at least one strain of bacteria

## C=C(C)C1CCC2(C)CCC3(C)C(CCC4C5(C)CCC(OC(=O)CC(C)(C)C(=O)O)C(C)(C)C5CCC43C)C12 (stereo not shown) [Lupeol-3-(3′,3′-dimethyl)succinate]
Staphylococcus aureus [1]; [6]
  Zone of inhibition (mm) against S. aureus: 0.5 mm
Staphylococcus aureus [1]
  Active against: S. aureus
[2]; [6]
  Zone of inhibition (mm) against S. epiderm.: 0 mm
Enterococcus faecalis; [6]
  Zone of inhibition (mm) against E. faecalis: 0 mm
Staphylococcus epidermis
  Optical Density of S. epiderm: 0.06
Staphylococcus aureus [3]
  Optical Density of S. aureus: 0.06
Enterococcus faecilis
  Optical Density of E. faecalis: 0.07
bacteria
  active against at least one strain of bacteria in the assays above: active against at least one strain of bacteria

## [H]/N=C(/N)N[C@H]1[C@H](O)[C@@H](O)[C@H](O[C@@H]2O[C@@H](C)[C@](O)(C=O)[C@H]2O[C@@H]2O[C@@H](CO)[C@H](O)[C@@H](O)[C@@H]2NC)[C@@H](N/C(N)=N\[H])[C@@H]1O [Streptomycin, reference compound]
Escherichia coli; Escherichia coli, control antibiotic, 10 mcg
  zone of inhibition at 10 µg/disc: 20 mm
Staphylococcus aureus [1]; [4]
  Zone of inhibition (mm) against S. aureus: 1.25 mm
Staphylococcus aureus [1]; Staphylococcus aureus, control antibiotic, 10 mcg
  zone of inhibition at 10 µg/disc: 15 mm
Staphylococcus aureus [1]; disk diffusion assay, laboratory strain (not methicillin resistant)
  amount applied to the disk required for inhibition of S. aureus: 10 µg
Bacillus subtilis; Bacillus subtilis, control antibiotic, 10 mcg
  zone of inhibition at 10 µg/disc: 24 mm
[2]; [4]
  Zone of inhibition (mm) against S. epiderm.: 0 mm
Enterococcus faecalis; [4]
  Zone of inhibition (mm) against E. faecalis: 0 mm

## Betulin 3,28-maleate
Escherichia coli; 20 mg/ml in DMSO
  Zone of inhibition Escherichia coli: 0 mm
Staphylococcus aureus [1]; 20 mg/ml in DMSO
  Zone of inhibition Staphylococcus aureus: 0 mm
Bacillus subtilis; 20 mg/ml in DMSO
  Zone of inhibition Bacillus subtilis: 0 mm

## Betulin dianiline ester
Escherichia coli; 125 ng/ml in water
  Zone of inhibition Escherichia coli: 0 mm
Staphylococcus aureus [1]; 125 ng/ml in water
  Zone of inhibition Staphylococcus aureus: 0 mm
Bacillus subtilis; 125 ng/ml in water
  Zone of inhibition Bacillus subtilis: 0 mm

## Betulin diglycolate
Escherichia coli; 125 ng/ml in water
  Zone of inhibition Escherichia coli: 10.0 mm
Staphylococcus aureus [1]; 125 ng/ml in water
  Zone of inhibition Staphylococcus aureus: 0 mm
Bacillus subtilis; 125 ng/ml in water
  Zone of inhibition Bacillus subtilis: 0 mm

## Gentamicin [reference compound]
Staphylococcus aureus [1]; [4]
  Zone of inhibition (mm) against S. aureus: 0.1 mm
[2]; [4]
  Zone of inhibition (mm) against S. epiderm.: 0 mm
Enterococcus faecalis; [4]
  Zone of inhibition (mm) against E. faecalis: 0 mm

## Hederine hydrate
Escherichia coli; 0.5 ng/ml in water
  Zone of inhibition Escherichia coli: 0 mm
Staphylococcus aureus [1]; 0.5 ng/ml in water
  Zone of inhibition Staphylococcus aureus: 0 mm
Bacillus subtilis; 0.5 ng/ml in water
  Zone of inhibition Bacillus subtilis: 0 mm

## Poly (ethylene glycol) bis (carboxymethyl) ester
Escherichia coli; 125 ng/ml in water
  Zone of inhibition Escherichia coli: 0 mm
Staphylococcus aureus [1]; 125 ng/ml in water
  Zone of inhibition Staphylococcus aureus: 0 mm
Bacillus subtilis; 125 ng/ml in water
  Zone of inhibition Bacillus subtilis: 0 mm
